Laboratory results published in ChEMBL document CHEMBL1255393, “Impact of different factors on the probability of clinical response in tigecycline-treated patients with intra-abdominal infections” (Antimicrob Agents Chemother, 2010).
≈ marks a conversion by molar mass, not a printed value.

Key:
[1] = Ratio of AUC in intra-abdominal infection patient at 100 mg followed by 50 mg every 12 hrs for 5 to 14 days to MIC for Enterobacteriaceae isolate; type: functional
[2] = Serum clearance in intra-abdominal infection patient at 100 mg followed by 50 mg every 12 hrs for 5 to 14 days; type: ADME, organism-based; conditions: human
[3] = test system: Enterobacteriaceae; experiment: Antibacterial activity against Enterobacteriaceae isolate obtained from intra-abdominal infection patient; type: functional
[4] = AUC in intra-abdominal infection patient at 100 mg followed by 50 mg every 12 hrs for 5 to 14 days; type: ADME, organism-based; conditions: human, plasma

clearance [2]: 268 mL/min
MIC50 [3]: 0.25 mg/L (≈ 0.427 µM)
MIC90 [3]: 1 mg/L (≈ 1.71 µM)
AUC [4]: 6.19 µg·h/mL
Structure (SMILES): CN(C)c1cc(NC(=O)CNC(C)(C)C)c(O)c2c1C[C@H]1C[C@H]3[C@H](N(C)C)C(O)=C(C(N)=O)C(=O)[C@@]3(O)C(O)=C1C2=O [TIGECYCLINE]
Ratio [1]: 21.8
